Assay results as given in patent publication US20260232682A1, “GSPT1 DEGRADER COMPOUNDS” (Captor Therapeutics S.A., priority 2023, published 2026).

Key:
[1] = target: T1, [IKZF1 ZF2]-[compound]-[CRBN/DDB1] ternary complex (Homo sapiens, UniProt Q13422+Q96SW2); test: AlphaLISA assay for off-target recruitment detection, IKZF1 ZF2; assay type: binding; conditions: 1 μM compound; normalized to Lenalidomide; read-out: Normalized ternary complex response, IKZF1 ZF2
T1 construct: IKZF1 ZF2
Description: (§1) The ability of the molecular glue compounds of the invention to mediate the proximity of CRBN with its known neo-substrates (shown in Table 3) was assessed using AlphaLISA to detect the formation of a [neo-substrate]-[compound of formula (I)]-[CRBN/DDB1] ternary complex.
(§2) Two types of protein solution were prepared: • neo-substrate, 40 μg/ml AlphaScreen Donor Beads (Table 3) in PBS (10 mM phosphate buffer, 137 mM NaCL, 2.7 mM KCl, pH 7.4) buffer supplemented with Tween-20 (Table 3) and 1 mM DTT, • 200 nM 6×His-CRBN/DDB1, 40 μg/ml AlphaLISA Anti-6×His Acceptor beads in PBS buffer with Tween-20 (Table 3) and 1 mM DTT.
(§3) The prepared solutions were incubated at room temperature for 30 min and then the solution containing the donor beads was mixed with the solution containing the acceptor beads.
(§4) The tested compounds were dispensed onto a white 384-well AlphaPlate 384 SW. DMSO was backfilled to all wells, resulting in a final DMSO content of 2%. Wells containing only DMSO served as background. Next, 10 μl of solution with donor and acceptor beads was added to the wells.
(§5) The plate was sealed with transparent film and shaken using a VibroTurbulator for 60 sec at room temperature, level 3. The plate was then spun down shortly (10 sec, 1000 rcf, room temperature) and incubated at 25° C. for 30 min.
(§6) The read-out was performed with PerkinElmer Enspire Multimode Plate Reader (method for AlphaLISA 384-well low volume, Filterset: λexc=680 nm, λem=615 nm).
(§7) The results were analyzed as follows: • 1) an average of luminescence for background signal was calculated and used as a negative control; • 2) an average of the maximum measured luminescence for reference compound (Table 3) was calculated and used as an internal positive control; • 3) raw luminescence values were normalized against positive and negative controls; • 4) Normalized responses to reference molecular glue were determined.

[2] = target: T2, [IKZF2 ZF2]-[compound]-[CRBN/DDB1] ternary complex (Homo sapiens, UniProt Q96SW2+Q9UKS7); test: AlphaLISA assay for off-target recruitment detection, IKZF2 ZF2; assay type: binding; conditions: 1 μM compound; normalized to Helios modulator; read-out: Normalized ternary complex response, IKZF2 ZF2
T2 construct: IKZF2 ZF2
T2 sequence (Q9UKS7 140-162 limits assumed): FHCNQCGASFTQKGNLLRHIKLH
T2 sequence (Q96SW2 whole entry): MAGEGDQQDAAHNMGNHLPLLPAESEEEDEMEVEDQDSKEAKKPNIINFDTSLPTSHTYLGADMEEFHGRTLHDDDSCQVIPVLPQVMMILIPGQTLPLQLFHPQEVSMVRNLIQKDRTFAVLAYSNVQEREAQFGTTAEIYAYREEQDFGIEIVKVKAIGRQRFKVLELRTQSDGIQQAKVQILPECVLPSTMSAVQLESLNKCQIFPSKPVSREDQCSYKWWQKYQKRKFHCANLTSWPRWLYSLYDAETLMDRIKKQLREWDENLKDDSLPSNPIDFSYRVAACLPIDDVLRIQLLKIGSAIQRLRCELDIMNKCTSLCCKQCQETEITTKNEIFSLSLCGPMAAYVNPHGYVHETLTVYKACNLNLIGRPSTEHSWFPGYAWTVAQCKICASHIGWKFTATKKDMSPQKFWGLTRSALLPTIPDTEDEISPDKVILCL
T2 sequence (Q16531 whole entry partner): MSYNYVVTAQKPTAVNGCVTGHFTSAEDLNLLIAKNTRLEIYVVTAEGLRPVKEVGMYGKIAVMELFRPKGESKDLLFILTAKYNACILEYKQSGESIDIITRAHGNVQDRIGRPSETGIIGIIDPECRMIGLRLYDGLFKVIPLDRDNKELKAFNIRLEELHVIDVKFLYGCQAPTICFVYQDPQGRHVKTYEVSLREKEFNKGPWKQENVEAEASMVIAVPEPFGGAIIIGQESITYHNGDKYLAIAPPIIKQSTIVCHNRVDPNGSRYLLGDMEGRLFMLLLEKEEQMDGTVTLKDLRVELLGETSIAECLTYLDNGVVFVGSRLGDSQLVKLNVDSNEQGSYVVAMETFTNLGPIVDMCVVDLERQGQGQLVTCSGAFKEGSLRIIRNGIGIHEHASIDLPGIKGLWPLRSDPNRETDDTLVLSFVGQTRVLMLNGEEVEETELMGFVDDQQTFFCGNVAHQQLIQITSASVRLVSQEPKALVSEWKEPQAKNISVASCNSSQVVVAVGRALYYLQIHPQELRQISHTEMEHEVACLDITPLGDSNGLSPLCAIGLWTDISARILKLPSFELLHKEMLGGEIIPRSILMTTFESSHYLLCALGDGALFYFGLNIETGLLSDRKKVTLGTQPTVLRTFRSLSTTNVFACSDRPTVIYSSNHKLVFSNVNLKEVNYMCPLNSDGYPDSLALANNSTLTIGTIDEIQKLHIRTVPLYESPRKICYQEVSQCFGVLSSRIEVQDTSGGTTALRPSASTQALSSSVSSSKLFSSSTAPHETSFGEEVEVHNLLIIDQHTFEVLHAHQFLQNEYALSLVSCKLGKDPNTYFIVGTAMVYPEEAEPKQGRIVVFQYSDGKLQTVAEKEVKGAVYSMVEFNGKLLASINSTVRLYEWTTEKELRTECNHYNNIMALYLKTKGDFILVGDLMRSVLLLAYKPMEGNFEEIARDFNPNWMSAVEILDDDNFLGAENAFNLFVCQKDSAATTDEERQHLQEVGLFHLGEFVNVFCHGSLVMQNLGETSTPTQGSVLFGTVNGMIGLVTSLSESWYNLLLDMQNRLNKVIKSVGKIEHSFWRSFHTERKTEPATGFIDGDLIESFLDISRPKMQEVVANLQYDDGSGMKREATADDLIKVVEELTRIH
Description: as §1, §2, §3, §4, §5, §6, §7

[3] = target: T3, [SALL4 ZF2]-[compound]-[CRBN/DDB1] ternary complex (Homo sapiens, UniProt Q96SW2+Q9UJQ4); test: AlphaLISA assay for off-target recruitment detection, SALL4 ZF2; assay type: binding; conditions: 1 μM compound; normalized to Lenalidomide; read-out: Normalized ternary complex response, SALL4 ZF2
T3 construct: SALL4 ZF2
T3 sequence (Q9UJQ4 410-432 limits assumed): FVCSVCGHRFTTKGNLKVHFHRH
T3 sequence (Q96SW2 whole entry): as the sequence (Q96SW2 whole entry) above
T3 sequence (Q16531 whole entry partner): as the sequence (Q16531 whole entry partner) above
Description: as §1, §2, §3, §4, §5, §6, §7

GSPT1-HiBiT HEK293 cells = test: Cell Viability-CTG assay accompanying the Nano-Glo HiBiT assay; assay type: cell-based; conditions: 6 hours treatment, viability of GSPT1-HiBiT HEK293 cells
Description: In parallel, the Cell Viability-CTG assay was performed to ensure that the potential decrease of the luminescent signal observed in the Nano-Glo HiBiT assay is a result of protein degradation and not a result of decreasing cell viability. For CTG assay accompanying the Nano-Glo HiBiT assay, cells were cultured, seeded and treated as described above. After 6 hours of incubation (37° C., 5% CO2), plates were removed from the incubator and let to equilibrate to RT. Luminescent signal detection was conducted using the CellTiter-Glo Lumiescent Cell Viability Assay (Promega, cat. nr G7573). 10 μL of the Cell Titer Glo reagent was added per well, plates were shaken to facilitate lysis (460 rpm, 4 min, RT) and incubated in the dark for the following 8 min. Luminescence was read using the CLARIOstar multimode plate reader (BMG LABTECH). The raw data (the relative luminescence unit values, RLU) were uploaded under the relevant protocol and analysed in CDDVault data management platform, in a manner similar to the description above. The Mean Minimum values were calculated in CDDVault using non-linear regression and appropriate equations.

[4] = target: T4, [GSPT1]-[compound of formula (I)]-[CRBN/DDB1] complex (Homo sapiens, UniProt P15170+Q96SW2); test: HTRF ternary complex assay (GSPT1); assay type: binding; conditions: read-out: HTRF ternary complex Average pEC50 by molecule (converted)
T4 sequence (P15170 whole entry): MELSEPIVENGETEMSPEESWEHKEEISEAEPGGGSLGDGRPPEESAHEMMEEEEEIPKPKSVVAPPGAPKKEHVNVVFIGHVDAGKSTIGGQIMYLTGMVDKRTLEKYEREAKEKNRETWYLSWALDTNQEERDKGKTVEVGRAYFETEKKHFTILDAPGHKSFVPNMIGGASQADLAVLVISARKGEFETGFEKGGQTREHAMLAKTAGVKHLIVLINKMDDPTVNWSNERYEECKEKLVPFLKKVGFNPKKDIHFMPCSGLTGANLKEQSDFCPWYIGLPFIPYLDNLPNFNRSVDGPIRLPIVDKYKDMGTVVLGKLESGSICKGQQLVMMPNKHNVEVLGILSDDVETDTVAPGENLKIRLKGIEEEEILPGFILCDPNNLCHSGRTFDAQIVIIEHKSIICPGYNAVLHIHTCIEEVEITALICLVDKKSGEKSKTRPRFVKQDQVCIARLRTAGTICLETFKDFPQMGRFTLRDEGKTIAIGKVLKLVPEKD
T4 sequence (Q96SW2 whole entry): as the sequence (Q96SW2 whole entry) above
T4 sequence (Q16531 whole entry partner): as the sequence (Q16531 whole entry partner) above
Description: The effect of the molecular glue compounds of the invention on the formation of a ternary complex composed of [GSPT1]-[compound of formula (I)]-[CRBN/DDB1] was investigated.
Mix solution of proteins and reagents was prepared: • 48 nM GSPT1, 52.8 nM 6×His-CRBN/DDB1, 3 nM of Streptavidin-Eu cryptate ([…]) and 6.67 nM of Anti-6×his-d2 ([…]) was prepared in PPI Europium detection buffer (purchased from Cisbio) with 1 mM DTT.
The tested compounds in dose-response were dispensed onto a white 384-well low volume plate (Greiner, 784075). DMSO was backfilled to all wells, resulting in a final DMSO content of 0.5%. Wells containing only DMSO served as background.
The plate was sealed with transparent film and shaken using a VibroTurbulator for 60 sec at level 3.
The plate was then spun down shortly (10 sec, 1000 rcf) and incubated at 25° C. for 180 min.
The read-out was performed with plate reader (Pherastar, BMG Labtech) in time resolved fluorescence mode. Filter settings: TR 337 665 620.
The results were analyzed as follows: • 1) an average of fluorescence for background signal was calculated and used as a negative control; • 2) raw fluorescence values for tested compounds were normalized against negative controls; • 3) saturation curve was fitted to specific binding with Hill slope model; • 4) EC50 and pEC50 values were determined.

[5] = target: T4, [GSPT1]-[compound of formula (I)]-[CRBN/DDB1] complex; test: AlphaLISA ternary complex formation assay (GSPT1); assay type: binding; conditions: 0.5 h; 1 μM compound; normalized to reference compound CC-885; read-out: Normalized AlphaLISA ternary complex average signal at 1 μM molecule
Description: The effect of the molecular glue compounds of the invention on the formation of a ternary complex composed of [GSPT1]-[compound of formula (I)]-[CRBN/DDB1] was investigated with two methods: AlphaLISA dose response assay or HTRF ternary complex assay.
Two types of protein solution were prepared: • 200 nM biotinylated GSPT1 (Table 3), 40 μg/ml AlphaScreen Streptavidin-coated Donor Beads in HBS (10 mM HEPES, 150 mM NaCL, pH 7.4) buffer with 0.1% Tween-20 and 1 mM DTT, • 200 nM 6×His-CRBN/DDB1, 40 μg/ml AlphaLISA Anti-6×His Acceptor beads in HBS buffer with 0.1% Tween-20 and 1 mM DTT.
as §3, §4, §5, §6
as §7, with “2)” for “2) an”, “(structure shown in Table 3 below)” for “(Table 3)”, “positive control” for “reference molecular glue”

T1 sequence (Q13422 145-167 limits assumed): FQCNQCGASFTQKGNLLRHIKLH
T1 sequence (Q96SW2 whole entry): as the sequence (Q96SW2 whole entry) above
T1 sequence (Q16531 whole entry partner): as the sequence (Q16531 whole entry partner) above

Compound	activation at 1 µM [1] [%]	activation at 1 µM [2] [%]	activation at 1 µM [3] [%]	CTG assay Mean minimum (GSPT1-HiBiT HEK293 cells)	EC50 [4] [µM]	activation at 1 µM [5] [%]
Cc1ccc(NC(=O)OCc2ccc3cc([C@H]4CCC(=O)NC4=O)c(C)nc3c2)cc1Cl [Compound 39, (3-(2,6-dioxopiperidin-3-yl)-2-methylquinolin-7-yl)methyl (3-chloro-4-methylphenyl)carbamate]	< 10	< 10	< 10	++++ (++++≥75% of viability of the HiBiT-GSPT1 HEK293 cells)	0.316 to 3.16	> 50
Cc1nc2cc(COC(=O)NC3CCC(C(C)(C)C)CC3)ccc2cc1C1CCC(=O)NC1=O (stereo not shown) [Compound 55, (3-(2,6-dioxopiperidin-3-yl)-2-methylquinolin-7-yl)methyl (4-(tert-butyl)cyclohexyl)carbamate]	< 10	< 10	< 10	++++ (++++≥75% of viability of the HiBiT-GSPT1 HEK293 cells)	0.316 to 3.16	> 50
Cc1nc2cc(COC(=O)Nc3cc(Cl)c(C)c(CN4CCOCC4)c3)ccc2cc1C1CCC(=O)NC1=O (stereo not shown) [Compound 17, (3-(2,6-dioxopiperidin-3-yl)-2-methylquinolin-7-yl)methyl (3-chloro-4-methyl-5-(morpholinomethyl)phenyl)carbamate]	< 10	< 10	< 10	++++ (++++≥75% of viability of the HiBiT-GSPT1 HEK293 cells)	< 0.316	10 to 50
Cc1nc2cc(COC(=O)Nc3ccc(C(F)(F)F)c(Cl)c3)ccc2cc1C1CCC(=O)NC1=O (stereo not shown) [Compound 18, (3-(2,6-dioxopiperidin-3-yl)-2-methylquinolin-7-yl)methyl (3-chloro-4-(trifluoromethyl)phenyl)carbamate]	< 10	< 10	< 10	++++ (++++≥75% of viability of the HiBiT-GSPT1 HEK293 cells)	0.316 to 3.16	10 to 50
Cc1ccc(NC(=O)OCc2cc(F)c3cc(C4CCC(=O)NC4=O)c(C)nc3c2)cc1Cl (stereo not shown) [Compound 22, (3-(2,6-dioxopiperidin-3-yl)-5-fluoro-2-methylquinolin-7-yl)methyl (3-chloro-4-methylphenyl)carbamate]	< 10	< 10	< 10	++++ (++++≥75% of viability of the HiBiT-GSPT1 HEK293 cells)	0.316 to 3.16	> 50
Cc1nc2cc(COC(=O)Nc3cc(C4(C(F)(F)F)CC4)no3)ccc2cc1C1CCC(=O)NC1=O (stereo not shown) [Compound 81, (3-(2,6-dioxopiperidin-3-yl)-2-methylquinolin-7-yl)methyl (3-(1-(trifluoromethyl)cyclopropyl)isoxazol-5-yl)carbamate]	< 10	< 10	< 10	++++ (++++≥75% of viability of the HiBiT-GSPT1 HEK293 cells)	< 0.316	> 50
[2H]C([2H])(OC(=O)Nc1cc(C(C)(C)C)no1)c1ccc2cc(C3CCC(=O)NC3=O)c(C)nc2c1 (stereo not shown) [Compound 82, (3-(2,6-dioxopiperidin-3-yl)-2-methylquinolin-7-yl)methyl-d2 (3-(tert-butyl)isoxazol-5-yl)carbamate]	< 10	< 10	< 10	++++ (++++≥75% of viability of the HiBiT-GSPT1 HEK293 cells)	< 0.316	> 50
Cc1nc2cc(COC(=O)Nc3csc(-c4ccccc4)c3)ccc2cc1C1CCC(=O)NC1=O (stereo not shown) [Compound 37, (3-(2,6-dioxopiperidin-3-yl)-2-methylquinolin-7-yl)methyl (5-phenylthiophen-3-yl)carbamate]	< 10	< 10	< 10	++++ (++++≥75% of viability of the HiBiT-GSPT1 HEK293 cells)	0.316 to 3.16	10 to 50
Cc1ccc(NC(=O)CCc2ccc3cc(C4CCC(=O)NC4=O)c(C)nc3c2)cc1Cl (stereo not shown) [Compound 32, N-(3-chloro-4-methylphenyl)-3-(3-(2,6-dioxopiperidin-3-yl)-2-methylquinolin-7-yl)propanamide]	< 10	< 10	< 10	++++ (++++≥75% of viability of the HiBiT-GSPT1 HEK293 cells)	0.316 to 3.16	> 50
Cc1ccc(NC(=O)OCc2ccc3nc(C)c(C4CCC(=O)NC4=O)cc3c2)cc1Cl (stereo not shown) [Compound 5, (3-(2,6-dioxopiperidin-3-yl)-2-methylquinolin-6-yl)methyl (3-chloro-4-methylphenyl)carbamate]	25 to 50	10 to 25	25 to 50		> 3.16	> 50
Cc1ccc(NC(=S)NCc2ccc3cc(C4CCC(=O)NC4=O)c(C)nc3c2)cc1Cl (stereo not shown) [Compound 2, 1-(3-chloro-4-methylphenyl)-3-((3-(2,6-dioxopiperidin-3-yl)-2-methylquinolin-7-yl)methyl)thiourea]	< 10	< 10	< 10		> 3.16	10 to 50
